From ChEMBL document CHEMBL1926669, “Quantitative structure-activity relationships of 1,3,4-thiadiazol-2(3H)-ones and 1,3,4-oxadiazol-2(3H)-ones as human protoporphyrinogen oxidase inhibitors” (Bioorg Med Chem, 2012)

target: T1, Protoporphyrinogen oxidase, mitochondrial (Nicotiana tabacum, UniProt O24164); experiment: Inhibition of Nicotiana tobacum PPO
T1 sequence (O24164 whole entry): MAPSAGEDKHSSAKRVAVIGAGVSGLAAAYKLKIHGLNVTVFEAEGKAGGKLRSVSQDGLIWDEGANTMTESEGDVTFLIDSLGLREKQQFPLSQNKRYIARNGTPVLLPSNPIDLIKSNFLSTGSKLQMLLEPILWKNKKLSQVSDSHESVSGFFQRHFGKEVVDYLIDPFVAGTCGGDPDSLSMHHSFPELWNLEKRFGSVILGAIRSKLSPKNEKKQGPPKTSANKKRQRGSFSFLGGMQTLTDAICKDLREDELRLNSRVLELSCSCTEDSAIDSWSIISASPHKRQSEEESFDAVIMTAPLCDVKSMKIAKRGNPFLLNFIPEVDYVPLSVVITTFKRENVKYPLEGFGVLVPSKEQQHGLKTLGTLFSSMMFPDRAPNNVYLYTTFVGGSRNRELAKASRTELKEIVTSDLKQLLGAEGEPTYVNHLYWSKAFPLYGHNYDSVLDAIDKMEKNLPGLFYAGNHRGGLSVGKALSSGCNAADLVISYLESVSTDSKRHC

Row | SMILES | Ki [µM]
1 | O=C(O)c1cc(Oc2ccc(C(F)(F)F)cc2Cl)ccc1[N+](=O)[O-] [ACIFLUORFEN] | 0.07

target: T2, Protoporphyrinogen oxidase (Homo sapiens, UniProt P50336); experiment: Inhibition of human PPO by capillary electrophoresis method
T2 sequence (P50336 whole entry): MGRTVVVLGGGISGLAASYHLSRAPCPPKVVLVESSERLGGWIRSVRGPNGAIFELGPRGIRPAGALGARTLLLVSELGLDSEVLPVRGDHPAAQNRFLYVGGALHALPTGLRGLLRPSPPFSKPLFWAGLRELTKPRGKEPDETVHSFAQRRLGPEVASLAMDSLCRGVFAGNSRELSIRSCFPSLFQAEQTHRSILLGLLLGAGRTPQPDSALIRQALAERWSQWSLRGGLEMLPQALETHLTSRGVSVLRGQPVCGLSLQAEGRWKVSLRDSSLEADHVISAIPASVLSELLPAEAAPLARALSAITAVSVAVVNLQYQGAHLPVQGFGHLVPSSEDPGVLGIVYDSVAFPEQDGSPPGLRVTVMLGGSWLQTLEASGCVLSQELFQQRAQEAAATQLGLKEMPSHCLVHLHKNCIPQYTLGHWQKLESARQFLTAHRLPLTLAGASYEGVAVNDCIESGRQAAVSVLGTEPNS

Row | SMILES | Ki [µM]
2 | CCOC(=O)Sc1nc2cc(-n3nc(C(C)(C)C)oc3=O)c(F)cc2s1 | 0.72
3 | CCOC(=O)C(C)Sc1nc2cc(-n3nc(C(C)(C)C)sc3=O)c(F)cc2s1 (stereo not given) | 5.89
4 | CCOC(=O)C(C)(C)Sc1nc2cc(-n3nc(C(C)(C)C)sc3=O)c(Cl)cc2s1 | 34.4
5 | CCOC(=O)C(C)(C)Sc1nc2cc(-n3nc(C(C)(C)C)oc3=O)c(Br)cc2s1 | 1.58
6 | COC(=O)CSc1nc2cc(-n3nc(C(C)(C)C)sc3=O)c(F)cc2s1 | 3.05
7 | C#CCSc1nc2cc(-n3nc(C(C)(C)C)oc3=O)c(F)cc2s1 | 1.92
8 | CC(C)OC(=O)CSc1nc2cc(-n3nc(C(C)(C)C)sc3=O)c(F)cc2s1 | 1.26
9 | CCOC(=O)C(C)(C)Sc1nc2cc(-n3nc(C(C)(C)C)sc3=O)c(F)cc2s1 | 3.46
10 | CCOC(=O)CCCSc1nc2cc(-n3nc(C(C)(C)C)oc3=O)c(F)cc2s1 | 0.36
11 | CCOC(=O)CSc1nc2cc(-n3nc(C(C)(C)C)oc3=O)c(Cl)cc2s1 | 1.07
12 | CC(C)Oc1cc(-n2nc(C(C)(C)C)oc2=O)c(Cl)cc1Cl [OXADIAZON] | 2.93

The remaining lines, values ahead:

Row | Ki [µM] | SMILES
13 | 21.4 | C#CCSc1nc2cc(-n3nc(C(C)(C)C)sc3=O)c(Cl)cc2s1
14 | 20.7 | C#CCSc1nc2cc(-n3nc(C(C)(C)C)sc3=O)c(Br)cc2s1
15 | 27.5 | CCOC(=O)CCSc1nc2cc(-n3nc(C(C)(C)C)sc3=O)c(Br)cc2s1
16 | 173 | CCOC(=O)C(C)Sc1nc2cc(-n3nc(C(C)(C)C)sc3=O)c(Br)cc2s1 (stereo not given)
17 | 245 | CCOC(=O)CCCSc1nc2cc(-n3nc(C(C)(C)C)sc3=O)c(Br)cc2s1
18 | 0.04 | CCOC(=O)Sc1nc2cc(-n3nc(C(C)(C)C)sc3=O)c(F)cc2s1
19 | 17.7 | CCOC(=O)CCCSc1nc2cc(-n3nc(C(C)(C)C)sc3=O)c(Cl)cc2s1
20 | 0.34 | CCOC(=O)CSc1nc2cc(-n3nc(C(C)(C)C)sc3=O)c(F)cc2s1
21 | 43.5 | CCOC(=O)C(C)(C)Sc1nc2cc(-n3nc(C(C)(C)C)sc3=O)c(Br)cc2s1
22 | 0.2 | CCOC(=O)Sc1nc2cc(-n3nc(C(C)(C)C)sc3=O)c(Cl)cc2s1
23 | 15.6 | CCOC(=O)CSc1nc2cc(-n3nc(C(C)(C)C)sc3=O)c(Br)cc2s1
24 | 12 | CCOC(=O)C(C)Sc1nc2cc(-n3nc(C(C)(C)C)sc3=O)c(Cl)cc2s1 (stereo not given)

target: T2, Protoporphyrinogen oxidase; experiment: Inhibition of human PPO expressed in Escherichia coli BL21(DE3) by continuous fluorometric method

Row | SMILES | Ki [µM]
25 | O=C(O)c1cc(Oc2ccc(C(F)(F)F)cc2Cl)ccc1[N+](=O)[O-] [ACIFLUORFEN] | 1.71
